Laboratory results reported in patent US10206394B2, “Herbicidal compounds” (Syngenta Participations AG, priority 2014, dated 2019).
Like-named read-outs stand apart in the source and are kept apart here.

What was measured:
Test in all cases: Glasshouse assay for herbicidal activity (pre- and post-emergence), percentage phytotoxicity
Type in all cases: in vivo
[1] = test system: Avena fatua (AVEFA); conditions: Avena fatua
Outline: (§1)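 Sow seed in standard soil in pots; apply test herbicide after 1 day (PRE) or about 12 days (POST). Grow on in the glasshouse, watering twice daily, cool-season species at 20/16 °C and warm-season at 24/18 °C. Score visible damage (0–100%) at 20 or 15 DAA respectively.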

[2] = test system: Alopecurus myosuroides (ALOMY); conditions: Alopecurus myosuroides
Outline: as §1

[3] = test system: Lolium perenne (LOLPE); conditions: Lolium perenne
Outline: as §1

[4] = test system: Echinochloa crus-galli (ECHCG); conditions: Echinochloa crus-galli
Outline: as §1

[5] = post-emergence, 360 h, 250 g/ha, post-emergence, 15 DAA, visual assessment (100%=total damage, 0%=no damage), read-out: Post-emergence herbicidal activity (percentage phytotoxicity) AVEFA POST
[6] = pre-emergence, 480 h, 250 g/ha, pre-emergence, 20 DAA, visual assessment (100%=total damage, 0%=no damage), read-out: Pre-emergence herbicidal activity (percentage phytotoxicity) AVEFA PRE
[7] = post-emergence, 360 h, 250 g/ha, post-emergence, 15 DAA, visual assessment (100%=total damage, 0%=no damage), read-out: Post-emergence herbicidal activity (percentage phytotoxicity) ALOMY POST
[8] = pre-emergence, 480 h, 250 g/ha, pre-emergence, 20 DAA, visual assessment (100%=total damage, 0%=no damage), read-out: Pre-emergence herbicidal activity (percentage phytotoxicity) ALOMY PRE
[9] = post-emergence, 360 h, 250 g/ha, post-emergence, 15 DAA, visual assessment (100%=total damage, 0%=no damage), read-out: Post-emergence herbicidal activity (percentage phytotoxicity) LOLPE POST
[10] = pre-emergence, 480 h, 250 g/ha, pre-emergence, 20 DAA, visual assessment (100%=total damage, 0%=no damage), read-out: Pre-emergence herbicidal activity (percentage phytotoxicity) LOLPE PRE
[11] = post-emergence, 360 h, 250 g/ha, post-emergence, 15 DAA, visual assessment (100%=total damage, 0%=no damage), read-out: Post-emergence herbicidal activity (percentage phytotoxicity) ECHCG POST
[12] = pre-emergence, 480 h, 250 g/ha, pre-emergence, 20 DAA, visual assessment (100%=total damage, 0%=no damage), read-out: Pre-emergence herbicidal activity (percentage phytotoxicity) ECHCG PRE

Compound: C#CCN(C)C(=O)CC1CC(=O)C(c2c(C)cc(C)cc2C)C1=O (stereo not shown) [Compound B38]
- pest or weed control at 250 g/ha [1, 5]: 90%
- pest or weed control at 250 g/ha [1, 6]: 60%
- pest or weed control at 250 g/ha [2, 7]: 70%
- pest or weed control at 250 g/ha [2, 8]: 70%
- pest or weed control at 250 g/ha [3, 9]: 90%
- pest or weed control at 250 g/ha [3, 10]: 100%
- pest or weed control at 250 g/ha [4, 11]: 90%
- pest or weed control at 250 g/ha [4, 12]: 100%

Compound: Cc1cc(C)c(C2C(=O)CC(C(C)C(=O)NCc3ncccc3Cl)C2=O)c(C)c1 (stereo not shown) [Compound A167]
- pest or weed control at 250 g/ha ([1]; post-emergence, 360 h, Rate 250 g/ha, post-emergence, assessed visually 15 DAA, 100%=total damage, 0%=no damage, read-out: Post-emergence herbicidal activity (percentage phytotoxicity) AVEFA POST): 70%
- pest or weed control at 250 g/ha ([1]; pre-emergence, 480 h, Rate 250 g/ha, pre-emergence, assessed visually 20 DAA, 100%=total damage, 0%=no damage, read-out: Pre-emergence herbicidal activity (percentage phytotoxicity) AVEFA PRE): 10%
- pest or weed control at 250 g/ha ([2]; post-emergence, 360 h, Rate 250 g/ha, post-emergence, assessed visually 15 DAA, 100%=total damage, 0%=no damage, read-out: Post-emergence herbicidal activity (percentage phytotoxicity) ALOMY POST): 20%
- pest or weed control at 250 g/ha ([2]; pre-emergence, 480 h, Rate 250 g/ha, pre-emergence, assessed visually 20 DAA, 100%=total damage, 0%=no damage, read-out: Pre-emergence herbicidal activity (percentage phytotoxicity) ALOMY PRE): 20%
- pest or weed control at 250 g/ha ([3]; post-emergence, 360 h, Rate 250 g/ha, post-emergence, assessed visually 15 DAA, 100%=total damage, 0%=no damage, read-out: Post-emergence herbicidal activity (percentage phytotoxicity) LOLPE POST): 60%
- pest or weed control at 250 g/ha ([3]; pre-emergence, 480 h, Rate 250 g/ha, pre-emergence, assessed visually 20 DAA, 100%=total damage, 0%=no damage, read-out: Pre-emergence herbicidal activity (percentage phytotoxicity) LOLPE PRE): 80%
- pest or weed control at 250 g/ha ([4]; post-emergence, 360 h, Rate 250 g/ha, post-emergence, assessed visually 15 DAA, 100%=total damage, 0%=no damage, read-out: Post-emergence herbicidal activity (percentage phytotoxicity) ECHCG POST): 80%
- pest or weed control at 250 g/ha ([4]; pre-emergence, 480 h, Rate 250 g/ha, pre-emergence, assessed visually 20 DAA, 100%=total damage, 0%=no damage, read-out: Pre-emergence herbicidal activity (percentage phytotoxicity) ECHCG PRE): 80%

Compound: Cc1cc(C)c(C2C(=O)CC(CC(=O)NCC(F)(F)F)C2=O)c(C)c1 (stereo not shown) [Compound B59]
- pest or weed control at 250 g/ha [1, 5]: 70%
- pest or weed control at 250 g/ha [1, 6]: 30%
- pest or weed control at 250 g/ha [2, 7]: 70%
- pest or weed control at 250 g/ha [2, 8]: 70%
- pest or weed control at 250 g/ha [3, 9]: 80%
- pest or weed control at 250 g/ha [3, 10]: 90%
- pest or weed control at 250 g/ha [4, 11]: 80%
- pest or weed control at 250 g/ha [4, 12]: 90%

Compound: Cc1cc(-c2ncc(C#N)cn2)cc(C)c1C1C(=O)CC(CC(=O)NCc2cccc(Cl)c2)C1=O (stereo not shown) [Compound B284]
- pest or weed control at 250 g/ha ([1]; post-emergence, 360 h, POST-emergence, rate 250 g/ha, visual score 15 DAA (100%=total damage, 0%=no damage), read-out: Post-emergence herbicidal activity (percentage phytotoxicity) AVEFA POST): 100%
- pest or weed control at 250 g/ha ([1]; pre-emergence, 480 h, PRE-emergence, rate 250 g/ha, visual score 20 DAA (100%=total damage, 0%=no damage), read-out: Pre-emergence herbicidal activity (percentage phytotoxicity) AVEFA PRE): 70%
- pest or weed control at 250 g/ha ([2]; post-emergence, 360 h, POST-emergence, rate 250 g/ha, visual score 15 DAA (100%=total damage, 0%=no damage), read-out: Post-emergence herbicidal activity (percentage phytotoxicity) ALOMY POST): 100%
- pest or weed control at 250 g/ha ([2]; pre-emergence, 480 h, PRE-emergence, rate 250 g/ha, visual score 20 DAA (100%=total damage, 0%=no damage), read-out: Pre-emergence herbicidal activity (percentage phytotoxicity) ALOMY PRE): 100%
- pest or weed control at 250 g/ha ([3]; post-emergence, 360 h, POST-emergence, rate 250 g/ha, visual score 15 DAA (100%=total damage, 0%=no damage), read-out: Post-emergence herbicidal activity (percentage phytotoxicity) LOLPE POST): 100%
- pest or weed control at 250 g/ha ([3]; pre-emergence, 480 h, PRE-emergence, rate 250 g/ha, visual score 20 DAA (100%=total damage, 0%=no damage), read-out: Pre-emergence herbicidal activity (percentage phytotoxicity) LOLPE PRE): 90%
- pest or weed control at 250 g/ha ([4]; post-emergence, 360 h, POST-emergence, rate 250 g/ha, visual score 15 DAA (100%=total damage, 0%=no damage), read-out: Post-emergence herbicidal activity (percentage phytotoxicity) ECHCG POST): 100%
- pest or weed control at 250 g/ha ([4]; pre-emergence, 480 h, PRE-emergence, rate 250 g/ha, visual score 20 DAA (100%=total damage, 0%=no damage), read-out: Pre-emergence herbicidal activity (percentage phytotoxicity) ECHCG PRE): 100%

Compound: COCC(C)NC(=O)CC1CC(=O)C(c2c(C)cc(Br)cc2C)C1=O (stereo not shown) [Compound B134]
- pest or weed control at 250 g/ha [1, 5]: 90%
- pest or weed control at 250 g/ha [1, 6]: 70%
- pest or weed control at 250 g/ha [2, 7]: 90%
- pest or weed control at 250 g/ha [2, 8]: 90%
- pest or weed control at 250 g/ha [3, 9]: 80%
- pest or weed control at 250 g/ha [3, 10]: 80%
- pest or weed control at 250 g/ha [4, 11]: 80%
- pest or weed control at 250 g/ha [4, 12]: 70%
